Read-outs that look alike come from different tables or passages of the source.
Test system: patients with HFrEF by ejection fraction quartile
Format: in vivo, human
Set-up: Change from baseline in KCCQ Total Symptom Score, least square mean / KCCQ Total Symptom Score Inpatient, Treatment Difference, least squares mean / KCCQ Total Symptom Score Outpatient, Treatment Difference, least squares mean / KCCQ Total Symptom Score, Treatment Difference, least squares mean: scale not given here
Conditions: for Troponin I (Ratio) / Troponin I, Treatment Difference (95% CI) / Creatinine, Treatment Difference / Heart rate, Treatment Difference / KCCQ Total Symptom Score, Treatment Difference, least squares mean / NT-proBNP (Ratio) / Potassium, Treatment Difference / Systolic BP, Treatment Difference / KCCQ Total Symptom Score Inpatient, Treatment Difference, least squares mean / KCCQ Total Symptom Score Outpatient, Treatment Difference, least squares mean: baseline to Week 24; for Change from baseline in KCCQ Total Symptom Score, least square mean: Week 24
Experimental: Continuous variables were summarized via means and standard deviations or medians and interquartile ranges, as appropriate. Categorical variables are summarized with counts and percentages. Tests of trend across categories were conducted via linear regression, Cuzick's non-parametric trend test, and Chi-squared tests of trend, respectively. Treatment effects on continuous outcomes were assessed via linear regression models adjusted for the corresponding baseline value of the parameter of interest. Survival analyses were conducted using Poisson regression models to estimate incidence rates, rate differences, and rate ratios and Cox proportional hazards models to estimate hazard ratios. […] To allow for potentially non-linear associations between ejection fraction and time-to-event outcomes, restricted cubic splines were utilized in the Poisson regression models with 3 knots. All analyses were conducted using STATA 16 (College Station, Tex.). P-values <0.05 were considered statistically significant. Due to the exploratory nature of these analyses, no adjustments were made for multiple comparisons.
Within each randomization setting subgroup least squares mean is from the mixed model which includes baseline total symptom score value, region, baseline eGFR, scheduled visit, treatment group and interaction of treatment with scheduled visit as covariates. Influence of Ejection Fraction on the Treatment Effect of Omecamtiv Mecarbil

Compound: COC(=O)N1CCN(Cc2cccc(NC(=O)Nc3ccc(C)nc3)c2F)CC1 [omecamtiv mecarbil]
- Troponin I (Ratio) (EF 29-32%, vs placebo): 1.27
- Troponin I, Treatment Difference (95% CI) (EF 29-32%, vs placebo): 4 (3, 5) ng/L
- Adjudicated First Major Cardiac Ischemic Events, % (EF 33%, OM group): 6.5%
- Adjudicated First Stroke, % (EF 33%, OM group): 1.8%
- Adverse Event: Ventricular Tachyarrhythmia, % (EF 33%, OM group): 6.4%
- Any treatment Emergent Serious Adverse Events, % (EF 33%, OM group): (55.5%)
- Positively Adjudicated Myocardial Infarction, % (EF 33%, OM group): 3.8%
- Serious Adverse Event: Ventricular Arrhythmia Requiring Treatment, % (EF 33%, OM group): 2.5%
- Adjudicated First Major Cardiac Ischemic Events, Relative Risk (EF 33%, OM vs placebo): 0.99
- Adjudicated First Stroke, Relative Risk (EF 33%, OM vs placebo): 0.77
- Adverse Event: Ventricular Tachyarrhythmia, Relative Risk (EF 33%, OM vs placebo): 0.88
- Any treatment Emergent Serious Adverse Events, Relative Risk (EF 33%, OM vs placebo): 1.02
- Positively Adjudicated Myocardial Infarction, Relative Risk (EF 33%, OM vs placebo): 1.02
- Serious Adverse Event: Ventricular Arrhythmia Requiring Treatment, Relative Risk (EF 33%, OM vs placebo): 1.11
- 1st HF Hospitalization (%) (EF ≤22%, OM group): (30%)
- 1st HF Hospitalization Rate (EF ≤22%, OM group): 20.9 per 100 patient years
- 1st HF Hospitalization n/N (EF ≤22%, OM group): 340/1127
- First HF Event (%) (EF ≤22%, OM group): (31%)
- First HF Event Rate (EF ≤22%, OM group): 21.7 per 100 patient years
- First HF Event n/N (EF ≤22%, OM group): 351/1127
- Primary Outcome (%) (EF ≤22%, OM group): (41%)
- Primary Outcome Rate (EF ≤22%, OM group): 28.3 per 100 patient years
- Primary Outcome n/N (EF ≤22%, OM group): 457/1127
- Total HF Events, Events (EF ≤22%, OM group): 719
- Total HF Events, Rate (EF ≤22%, OM group): 37.1 per 100 pt-yrs
- Total HF Hospitalizations, Events (EF ≤22%, OM group): 679
- Total HF Hospitalizations, Rate (EF ≤22%, OM group): 35.1 per 100 pt-yrs
- 1st HF Hospitalization ARR (EF ≤22%, OM vs placebo): 6.1 per 100 patient years
- 1st HF Hospitalization HR (95% CI) (EF ≤22%, OM vs placebo): 0.82 (0.71, 0.94)
- First HF Event ARR (EF ≤22%, OM vs placebo): 6.6 per 100 patient years
- First HF Event HR (95% CI) (EF ≤22%, OM vs placebo): 0.81 (0.70, 0.93)
- Primary Outcome ARR (EF ≤22%, OM vs placebo): 7.4 per 100 patient years
- Primary Outcome HR (95% CI) (EF ≤22%, OM vs placebo): 0.83 (0.73, 0.95)
- Total HF Events, ARR (EF ≤22%, OM vs placebo): 11.3 per 100 pt-yrs
- Total HF Events, Ratio (95% CI) (EF ≤22%, OM vs placebo): 0.83 (0.70, 1.01)
- Total HF Hospitalizations, ARR (EF ≤22%, OM vs placebo): 9.9 per 100 pt-yrs
- Total HF Hospitalizations, Ratio (95% CI) (EF ≤22%, OM vs placebo): 0.84 (0.70, 1.01)
- Creatinine, Treatment Difference (EF ≤22%, vs placebo): -0.01 mg/dL
- Heart rate, Treatment Difference (EF ≤22%, vs placebo): −1.6 bpm
- KCCQ Total Symptom Score, Treatment Difference, least squares mean (EF ≤22%, vs placebo): +1.6
- NT-proBNP (Ratio) (EF ≤22%, vs placebo): 0.78
- Potassium, Treatment Difference (EF ≤22%, vs placebo): 0.01 mmol/L
- Systolic BP, Treatment Difference (EF ≤22%, vs placebo): 0.9 mmHg
- Troponin I (Ratio) (EF ≤22%, vs placebo): 1.19
- Troponin I, Treatment Difference (95% CI) (EF ≤22%, vs placebo): 5 (4, 6) ng/L
- 1st HF Hospitalization (%) (EF ≥33%, OM group): 26%
- 1st HF Hospitalization Rate (EF ≥33%, OM group): 15.5 per 100 patient years
- 1st HF Hospitalization n/N (EF ≥33%, OM group): 228/892
- All-cause Death (%) (EF ≥33%, OM group): 22%
- All-cause Death Rate (EF ≥33%, OM group): 11.8 per 100 patient years
- All-cause Death n/N (EF ≥33%, OM group): 200/892
- First HF Event (%) (EF ≥33%, OM group): 26%
- First HF Event Rate (EF ≥33%, OM group): 16.2 per 100 patient years
- First HF Event n/N (EF ≥33%, OM group): 236/892
- Primary Outcome (%) (EF ≥33%, OM group): 33%
- Primary Outcome Rate (EF ≥33%, OM group): 20.5 per 100 patient years
- Primary Outcome n/N (EF ≥33%, OM group): 298/892
- Total HF Events, Events (EF ≥33%, OM group): 483
- Total HF Events, Rate (EF ≥33%, OM group): 28.5 per 100 pt-yrs
- Total HF Hospitalizations, Events (EF ≥33%, OM group): 449
- Total HF Hospitalizations, Rate (EF ≥33%, OM group): 26.5 per 100 pt-yrs
- 1st HF Hospitalization ARR (EF ≥33%, OM vs placebo): −1.2 per 100 patient years
- 1st HF Hospitalization HR (95% CI) (EF ≥33%, OM vs placebo): 1.03 (0.85, 1.24)
- All-cause Death ARR (EF ≥33%, OM vs placebo): −0.1 per 100 patient years
- All-cause Death HR (95% CI) (EF ≥33%, OM vs placebo): 0.98 (0.80, 1.20)
- First HF Event ARR (EF ≥33%, OM vs placebo): −1.3 per 100 patient years
- First HF Event HR (95% CI) (EF ≥33%, OM vs placebo): 1.04 (0.86, 1.25)
- Primary Outcome ARR (EF ≥33%, OM vs placebo): −0.4 per 100 patient years
- Primary Outcome HR (95% CI) (EF ≥33%, OM vs placebo): 0.99 (0.84, 1.16)
- Total HF Events, ARR (EF ≥33%, OM vs placebo): −4.7 per 100 pt-yrs
- Total HF Events, Ratio (95% CI) (EF ≥33%, OM vs placebo): 1.13 (0.90, 1.43)
- Total HF Hospitalizations, ARR (EF ≥33%, OM vs placebo): −3.6 per 100 pt-yrs
- Total HF Hospitalizations, Ratio (95% CI) (EF ≥33%, OM vs placebo): 1.12 (0.89, 1.43)
- Creatinine, Treatment Difference (EF ≥33%, vs placebo): 0.02 mg/dL
- Heart rate, Treatment Difference (EF ≥33%, vs placebo): −1.1 bpm
- KCCQ Total Symptom Score, Treatment Difference, least squares mean (EF ≥33%, vs placebo): −1.0
- NT-proBNP (Ratio) (EF ≥33%, vs placebo): 0.97
- Potassium, Treatment Difference (EF ≥33%, vs placebo): 0.02 mmol/L
- Systolic BP, Treatment Difference (EF ≥33%, vs placebo): −1.2 mmHg
- Troponin I (Ratio) (EF ≥33%, vs placebo): 1.27
- Troponin I, Treatment Difference (95% CI) (EF ≥33%, vs placebo): 3 (2, 4) ng/L
- Change from baseline in KCCQ Total Symptom Score, least square mean (Inpatient, EF 23-28%): 21.51
- KCCQ Total Symptom Score Inpatient, Treatment Difference, least squares mean (Inpatient, EF 23-28%, vs placebo): +0.2
- Change from baseline in KCCQ Total Symptom Score, least square mean (Inpatient, EF 29-32%): 22.34
- KCCQ Total Symptom Score Inpatient, Treatment Difference, least squares mean (Inpatient, EF 29-32%, vs placebo): +4.8
- Change from baseline in KCCQ Total Symptom Score, least square mean (Inpatient, EF ≤22%): 27.70
- KCCQ Total Symptom Score Inpatient, Treatment Difference, least squares mean (Inpatient, EF ≤22%, vs placebo): +4.9
- Change from baseline in KCCQ Total Symptom Score, least square mean (Inpatient, EF ≥33%): 22.09
- KCCQ Total Symptom Score Inpatient, Treatment Difference, least squares mean (Inpatient, EF ≥33%, vs placebo): −0.0
- Change from baseline in KCCQ Total Symptom Score, least square mean (Outpatient, EF 23-28%): 5.61
- KCCQ Total Symptom Score Outpatient, Treatment Difference, least squares mean (Outpatient, EF 23-28%, vs placebo): −0.6
- Change from baseline in KCCQ Total Symptom Score, least square mean (Outpatient, EF 29-32%): 5.30
- KCCQ Total Symptom Score Outpatient, Treatment Difference, least squares mean (Outpatient, EF 29-32%, vs placebo): −0.8
- Change from baseline in KCCQ Total Symptom Score, least square mean (Outpatient, EF ≤22%): 7.08
- KCCQ Total Symptom Score Outpatient, Treatment Difference, least squares mean (Outpatient, EF ≤22%, vs placebo): +0.7
- Change from baseline in KCCQ Total Symptom Score, least square mean (Outpatient, EF ≥33%): 5.18
- KCCQ Total Symptom Score Outpatient, Treatment Difference, least squares mean (Outpatient, EF ≥33%, vs placebo): −1.5
- Increase in troponin I, median (across the EF quartiles, limit of detection 6 ng/L, upper reference limit 40 ng/L): 3 to 5 ng/L
- Incidence of adverse events, omecamtiv mecarbil vs placebo (by EF quartile, result in words): no significant differences
- Effect on symptoms as assessed by the KCCQ-TSS as a function of EF (inpatient or outpatient settings, result in words): no consistent beneficial effect
- Absolute risk reduction, primary composite endpoint (lowest ejection fraction quartile): 7.4 events per 100 patient-years
- Relative risk reduction, primary composite endpoint (lowest ejection fraction quartile (EF ≤22%)): 17%
- Number-needed-to-treat to prevent an event (over 3 years, lowest ejection fraction quartile): 11.8
- Effect on cardiovascular death (overall population and as a function of baseline ejection fraction, result in words): no overall effect
- Primary endpoint, hazard ratio (patients with EF ≤28%, vs placebo): 0.84
- Primary endpoint, hazard ratio (patients with EF>28%, vs placebo): 1.04
- Reduction in time-to-first heart failure event or cardiovascular death (primary endpoint) (patients with ejection fraction ≤28% (below the median)): 16%
- Effect on all-cause mortality (result in words): no effect
- Relative risk reduction, primary composite endpoint (second lowest ejection fraction quartile (EF 23-28%)): 15%
- Incidence of adjudicated stroke (vs placebo, result in words): apparent reduction
- Change of NT-proBNP (week 24, highest EF quartile): 3%
- Reduction of NT-proBNP (week 24, lowest EF quartile (≤22%)): 22%
